Columns and labels:
[1] = target: T1, PKAc (Homo sapiens, UniProt P17612); assay: PKAc degradation in cells, Western blot densitometry; assay type: cell-based; settings: MDA-MB-231 cells, n = 3
T1 construct: degrade native PKAc in cells, MDA-MB-231 cells were used; endogenous in cells; host or cells: MDA-MB-231 (ATCC HTB-26)
Excerpt: To determine whether StIP-TAC could successfully degrade native PKAc in cells, MDA-MB-231 cells were used. […] We hypothesized this lack of a statistically significant effect may be a result of the compound’s relatively large molecular weight (∼3 kDa) and potentially limited cellular permeability, a common limitation of PROTAC molecules.[37]−[40] […] Based on this study, we aimed to improve delivery of our compound using SAINT Protein. […] To confirm that StIP-TAC-mediated degradation of PKAc resulted from recruitment of the proteasome, we incubated cells with 10 μM StIP-TAC alongside 10 μM proteasomal inhibitor MG-132 and subsequently screened for PKAc protein levels.
Cell-based PROTAC activity assays. MDA-MB-231 cells were grown on 6-well tissue culture plates (BD Biosciences). Cells were serum-starved for 24 hours in serum-free RPMI with penicillin/streptomycin, glucose, and L-glutamine. StIP-TAC treatment was prepared with SAINT-Protein reagent according to manufacturer protocol (Synvolux) and added to cells at a final concentration of 10 µM for 5 hours. For phosphorylation studies, cells were additionally stimulated with 50 µM forskolin for 30 minutes before harvesting. For H89-treated cells, 50 μM H89 was added 30 minutes before stimulation with forskolin. For degradation studies, cells were co-treated with 10 μM MG-132 (Selleck Chemicals) alongside StIP-TAC and DMSO treatments for the duration of the 5-hour experiment. For studies examining the NAE-mediated activation of CRL, cells were co-treated with 6 μM MLN4924 (Cayman Chemical) alongside StIP-TAC for the duration of the 5-hour experiment. For studies examining potential effects of StIP-3 on PKAc protein levels, cells were treated with 10 μM StIP-3 with or without SAINT-Protein reagent for 5 hours. Cells were harvested in Laemmli sample buffer, boiled for 10 minutes and protein levels were analyzed via western blotting. For control experiments, cells were incubated for 5 hours with an equivalent volume of DMSO or SAINT-Protein to the above studies, with or without forskolin stimulation.
To assess PKA degradation, anti-PKAc (1:1000, BD Biosciences) and anti-GAPDH (1:1000, Proteintech) primary antibodies were used. To assess PKA substrate phosphorylation, anti-phospho serine/threonine PKA substrate (1:1000, Cell Signaling Technology) and anti-tubulin (1:1000, Cell Signaling Technology) primary antibodies were used. To assess phosphorylation of VASP, anti-phospho VASP (1:1000, Cell […]
Signaling Technology) and anti-GAPDH (0.5 μg/mL, DSHB) primary antibodies were used. Incubation with primary antibodies was followed by incubation with anti-mouse […]
(§1) Biosciences). Western blot fluorescence detection was performed using a LI-COR Odyssey Fc imaging system. Data analysis was performed using GraphPad Prism […]
Table S1. Peptide and PROTAC sequences, expected and observed masses determined via HPLC-MS. Asterisks (*) represent residues of (S)-2-(4-pentenyl)- […]
(1 picture or pasted object on this page, not shown here)
(§2) Figure S3: Western blots for PKA degradation. Experiments were performed in triplicate (n=3) in low passage number MDA-MB-231 cells (ATCC HTB-26). Following t = 24 hour starvation in serum-free RPMI media, cells were treated for t = 5 hours with DMSO, SAINT-Protein Lipid reagent alone, 10 µM StIP-TAC, or 10 µM StIP-TAC incubated with SAINT-Protein Lipid reagent per manufacturer instructions. […]

[2] = system: phospho serine/threonine PKA substrate; assay: PKA substrate phosphorylation in forskolin-stimulated cells, Western blot; assay type: cell-based; settings: MDA-MB-231 cells, 10 µM, 5 h, 50 µM forskolin 30 min, n = 3
Description: (§3) Next, we sought to assess whether StIP-TAC could also downregulate PKAc signaling in cells. For this experiment, cells were treated with forskolin to stimulate PKAc activity. Cells were either treated with DMSO, the small molecule PKAc inhibitor H89, StIP-TAC alone, or StIP-TAC with SAINT protein (Figure 4; Figure S7). […] (Figure 4C,D). A known PKA substrate, vasodilator-stimulated phosphoprotein (VASP),[42] was also probed for PKA-mediated phosphorylation (Figure S8).
Cell-based PROTAC activity assays. MDA-MB-231 cells were grown on 6-well tissue culture plates (BD Biosciences). Cells were serum-starved for 24 hours in serum-free RPMI with penicillin/streptomycin, glucose, and L-glutamine. StIP-TAC treatment was prepared with SAINT-Protein reagent according to manufacturer protocol (Synvolux) and added to cells at a final concentration of 10 µM for 5 hours. For phosphorylation studies, cells were additionally stimulated with 50 µM forskolin for 30 minutes before harvesting. For H89-treated cells, 50 μM H89 was added 30 minutes before stimulation […]
with forskolin. […]
Cells were harvested in Laemmli sample buffer, boiled for 10 minutes and protein levels were analyzed via western blotting. For control experiments, cells were incubated for 5 hours with an equivalent volume of DMSO or SAINT-Protein to the above studies, with or without forskolin stimulation.
To assess PKA degradation, anti-PKAc (1:1000, BD Biosciences) and anti-GAPDH (1:1000, Proteintech) primary antibodies were used. To assess PKA substrate phosphorylation, anti-phospho serine/threonine PKA substrate (1:1000, Cell Signaling […]
Incubation with primary antibodies was followed by incubation with anti-mouse […]
as §1
as §2, with “S7:” for “S3:”, “substrate phosphorylation.” for “degradation.”, “instructions. For forskolin-stimulated treatments, cells were incubated for 30 minutes with 50 µM forskolin” for “instructions.”
prior to harvesting in Laemmli sample buffer. For H89-inhibited treatments, cells were incubated for 30 minutes prior to forskolin stimulation with 50 µM H89. Lysates were run via SDS-PAGE and Western blotting performed anti-phospho serine/threonine PKA substrate (1:1000, Cell Signaling Technology) and anti-tubulin (1:1000, Cell Signaling Technology) primary antibodies.

[3] = system: phospho VASP; assay: VASP phosphorylation in forskolin-stimulated cells, Western blot; assay type: cell-based; settings: MDA-MB-231 cells, 10 µM, 5 h, 50 µM forskolin 30 min, n = 3
Description: as §3
Cell-based PROTAC activity assays. MDA-MB-231 cells were grown on 6-well tissue culture plates (BD Biosciences). Cells were serum-starved for 24 hours in serum-free RPMI with penicillin/streptomycin, glucose, and L-glutamine. StIP-TAC treatment was prepared with SAINT-Protein reagent according to manufacturer protocol (Synvolux) and added to cells at a final concentration of 10 µM for 5 hours. For phosphorylation studies, cells were additionally stimulated with 50 µM forskolin for 30 minutes before harvesting. For H89-treated cells, 50 μM H89 was added 30 minutes before stimulation with forskolin. For degradation studies, cells were co-treated with 10 μM MG-132 (Selleck Chemicals) alongside StIP-TAC and DMSO treatments for the duration of the 5-hour experiment. […] Cells were harvested in Laemmli sample buffer, boiled for 10 minutes and protein levels were analyzed via western blotting. […]
Biosciences). Western blot fluorescence detection was performed using a LI-COR Odyssey Fc imaging system. […]
Table S1. Peptide and PROTAC sequences, expected and observed masses determined via HPLC-MS. […]
Figure S8: StIP-TAC inhibits phosphorylation of the PKA substrate VASP. […] (B) Densitometric quantification of Western blots […]
reduction in phosphorylated VASP in cells treated with H89 and StIP-TAC with SAINT Protein reagent. Quantification was performed via Li-COR Image Studio. **p=0.010; ***p<0.001; ns, not significant as assessed by one-way ANOVA and Bonferroni’s multiple comparisons test. […]

[4] = system: cells

PKAc protein levels on co-treatment with NAE inhibitor MLN4924 ([1]; 10 µM with SAINT Protein, plus 6 µM MLN4924, 5 h): rescued PKAc protein to baseline levels
PKAc protein levels on co-treatment with proteasomal inhibitor MG-132 ([1]; 10 µM with SAINT Protein, plus 10 µM MG-132, 5 h): rescued PKAc protein to baseline levels
reduction of PKAc protein levels vs vehicle control ([1]; 10 µM, 5 h, with SAINT Protein lipid reagent, normalized to GAPDH): approximately 50%
PKAc degradation, forskolin stimulated vs unstimulated ([1]; 10 µM, 5 h, with or without 30 min 50 µM forskolin): no significant difference
PKAc protein levels vs vehicle control ([1]; 10 µM, 5 h, without SAINT Protein lipid reagent, normalized to GAPDH): no significant reduction
Substance: Cereblon Ligand 1-PEG8-*TTY*DFIASGRTGRRNAI (sidechain bridge or staple) [StIP-TAC]
PKAc substrate phosphorylation ([2]; with SAINT Protein): significant reduction in substrate phosphorylation to near basal levels
phosphorylation of the approximately 55, 60, 80, and 100 kDa substrate bands ([2]; with SAINT Protein): statistically significant reduction
PKAc substrate phosphorylation ([2]; without SAINT Protein): did not yield a significant reduction
VASP phosphorylation ([3]; with SAINT-Protein): significant inhibition
VASP phosphorylation ([3]; without SAINT Protein): did not result in a significant reduction
cell permeability [4]: no longer permeable
